From publication PMC9144145, “Preclinical Safety and Pharmacokinetics of Heat Stable Oxytocin in Sublingual Fast-Dissolving Tablet Formulation” (Pharmaceutics, 2022)

Assay: GLP toxicokinetic study in anesthetized rabbits, plasma oxytocin by LC-MS/MS
Assay type: in vivo
Details: rabbit, IM, 10 IU
Procedure: The toxicokinetic study in rabbits (Table 2) was conducted at a contract animal facility (Noble Life Sciences, Sykesville, MD, USA) under approval from Noble Life Sciences IACUC (approval code: NLS-589, date: 13 May 2020) and in compliance with the U.S. Food and Drug Administration Good Laboratory Practice Regulations for Nonclinical Laboratory Studies (21 CFR Part 58).
For SL placement of fast dissolving tablets, the rabbit was anesthetized and positioned on a flat table, with the lower jaw strongly supported in a horizontal level on the table. Using rounded tip stainless tweezers, the rabbit’s tongue was carefully raised, and the sublingual tablet was placed beneath the tongue (see Figure 1). Anesthesia was maintained for 3 h after drug administration to keep the tablet in sublingual position and prevent entering the gastrointestinal tract.
Animals were not fasted prior to blood collection. Blood was collected at the time points of 0 min (pre-dose) and 5, 10, 15, 20, 30, 60, 120, and 180 min post-dose and at euthanasia only the first four animals for SL group. All animals were anesthetized pre-dose, prior to dosing. All animals were anesthetized with ketamine (35–50 mg/kg) and xylazine (3–5 mg/kg) via a subcutaneous or intramuscular (IM) route followed by maintenance anesthesia with additional half doses if needed or via inhaled isoflurane. At the selected time points, whole blood was collected aseptically from the auricular artery and dispensed into the appropriate collection tubes in any order: (1) K3 EDTA for hematology determinations; (2) 0.129 M, 3.8% sodium citrate for coagulation analyses (plasma); (3) serum separator tube for serum chemistry and C-reactive protein; and (4) aprotinin-spiked (K2EDTA) tubes for plasma oxytocin determinations. Tubes containing hematology specimens were placed at room temperature on a rocker for at least 30 min prior to shipment. Tubes containing whole blood for serum isolation were maintained for at least 30 min and no more than 4 h at room temperature before being processed to serum. Tubes containing aprotinin-spiked (K2EDTA) specimens for oxytocin determinations were maintained on wet ice or cold packs before use and after collection. They were also maintained on a rocker for at least 30 min prior to processing.
Blood samples for oxytocin determination were collected into the Aprotinin spiked (K2EDTA) vacutainer tubes and processed for collection of plasma. The samples were processed by centrifuging for approximately 15 min at approximately 3000 rpm and approximately 4 °C; they were aliquoted into cryovials without anticoagulant and were immediately placed on dry ice. At termination, blood was collected from the SL group for serum chemistry, C-reactive protein, hematology, and coagulation. Blood collected for coagulation analyses was collected into tubes containing 3.8% sodium citrate and was processed for plasma per the Noble protocol. All serum and plasma samples were processed aseptically.
Each plasma sample was aliquoted into two vials of an approximately equal volume. All the collected plasma was analyzed for oxytocin levels by the LC-MS/MS method.
The bioanalytical method for quantification of oxytocin in rabbit plasma (K2EDTA) was validated following the FDA guidelines for a bioanalytical method validation at NorthEast BioAnalytical Laboratory, LLC (NEBA) (Hamden, CT, USA), via reverse phase liquid chromatography separation (Column: Zorbax SB C18 (Agilent, Santa Clara, CA, USA) 3.5 μm 150 × 4.6 mm, Security/Guard Cartridge Gemini C18 4 × 2.0 mm) and detection by tandem mass spectrometry (LC/MS/MS) using Sciex API-5000 Mass Spectrometer. Analysis of Oxytocin was performed using stable label internal standard, Oxytocin-d5. Oxytocin was received as an acetate salt and Oxytocin-d5 was received as Trifluoroacetate salt.
For quantitation, the LC/MS/MS data were acquired using Analyst® v1.6 software (Sciex, Framingham, MA, USA). […]

CC[C@H](C)[C@@H]1NC(=O)[C@H](Cc2ccc(O)cc2)NC(=O)[C@@H](N)CSSC[C@@H](C(=O)N2CCC[C@H]2C(=O)N[C@@H](CC(C)C)C(=O)NCC(N)=O)NC(=O)[C@H](CC(N)=O)NC(=O)[C@H](CCC(N)=O)NC1=O [Intramuscular (Control), Oxytocin]
AUC(0-t) (plasma, linear trapezoidal, mean, n = 8): 4.82 ± 0.728 ng·h/mL | half-life (plasma, mean, n = 8): 1.02 ± 0.336 h | time to rapid increase in plasma oxytocin concentration: ≤ 5 min | Tlast (mean, n = 8): 2.88 ± 0.354 h | Tmax (plasma, LC-MS/MS, mean ± SD, n = 8, SD): 1.13 ± 0.916 h | Cmax (plasma, LC-MS/MS, mean, n = 8): 2.66 ± 0.567 ng/mL
